According to PMC2840614 (Bioorganic & medicinal chemistry letters, 2010):
Numbered stars: 1 amine (or outer) side, 2 acyl side, 3 side chain; on linkers, the order of the positions; unused ones are H or OH. Bridge positions count the residues as written; N and C are the ends. Square brackets hold non-standard residues; d marks the D form. Peptide text beside a SMILES is read from it. I, II: the chains in the order shown. Dmt = Cc1cc(O)cc(C)c1C[C@H](N)C(=O)O; Ethylenediamine = C(CN[*:2])N[*:1]; Tic = O=C(O)[C@@H]1Cc2ccccc2CN1

Experiments:
[1] = target: T1, δ-opioid receptor (Mus musculus, UniProt P32300); conditions: δ-antagonism in vitro; cited from earlier work
T1 sequence (P32300 whole entry): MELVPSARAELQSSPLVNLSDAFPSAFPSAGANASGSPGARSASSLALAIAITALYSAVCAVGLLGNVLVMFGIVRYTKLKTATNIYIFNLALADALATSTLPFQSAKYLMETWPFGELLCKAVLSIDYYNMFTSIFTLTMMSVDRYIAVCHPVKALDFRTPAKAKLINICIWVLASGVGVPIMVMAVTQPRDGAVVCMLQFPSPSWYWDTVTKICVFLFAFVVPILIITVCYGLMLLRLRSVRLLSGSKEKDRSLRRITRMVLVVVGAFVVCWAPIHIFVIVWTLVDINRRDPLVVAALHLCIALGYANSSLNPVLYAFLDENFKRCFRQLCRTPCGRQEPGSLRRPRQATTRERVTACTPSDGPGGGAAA

[2] = system: μ-opioid receptor; conditions: μ-antagonism in vitro; cited from earlier work
[3] = target: δ-opioid receptor (DOR) (Rattus norvegicus, UniProt P33533); conditions: cited from earlier work; for Ki: read-out: Receptor affinity Ki δ, rat brain membranes
δ-opioid receptor (DOR), sequence (P33533 whole entry): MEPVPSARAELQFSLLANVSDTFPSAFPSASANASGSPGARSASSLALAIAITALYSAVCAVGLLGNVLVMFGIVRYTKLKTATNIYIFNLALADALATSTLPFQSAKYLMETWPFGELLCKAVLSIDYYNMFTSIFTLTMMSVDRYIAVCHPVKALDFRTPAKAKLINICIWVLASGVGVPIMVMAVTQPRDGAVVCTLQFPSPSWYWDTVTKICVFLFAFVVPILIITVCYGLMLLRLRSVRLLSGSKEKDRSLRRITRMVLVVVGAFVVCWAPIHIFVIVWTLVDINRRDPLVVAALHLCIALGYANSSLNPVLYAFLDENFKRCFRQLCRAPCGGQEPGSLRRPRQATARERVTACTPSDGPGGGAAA

[4] = target: μ-opioid receptor (MOR) (Rattus norvegicus, UniProt P33535); conditions: cited from earlier work; for Selectivity Kiδ/Kiμ: ratio of binding Ki values; for Ki: read-out: Receptor affinity Ki μ, rat brain membranes
μ-opioid receptor (MOR), sequence (P33535 whole entry): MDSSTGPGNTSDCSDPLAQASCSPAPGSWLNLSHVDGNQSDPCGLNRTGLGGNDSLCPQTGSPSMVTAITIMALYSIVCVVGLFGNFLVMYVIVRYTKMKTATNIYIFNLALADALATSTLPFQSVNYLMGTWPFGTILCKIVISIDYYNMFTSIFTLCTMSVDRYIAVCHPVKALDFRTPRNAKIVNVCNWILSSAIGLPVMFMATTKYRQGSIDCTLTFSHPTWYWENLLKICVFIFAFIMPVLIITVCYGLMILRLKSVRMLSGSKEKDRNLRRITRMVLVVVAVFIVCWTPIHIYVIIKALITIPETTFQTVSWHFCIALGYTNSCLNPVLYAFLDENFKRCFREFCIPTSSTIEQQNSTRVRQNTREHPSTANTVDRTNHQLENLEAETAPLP

[5] = target: T1, δ-opioid receptor; conditions: read-out: MVD IC50; agonism, mouse vas deferens; cited from earlier work
[6] = target: μ-opioid receptors (Cavia porcellus, UniProt A0ACM8Q262); conditions: read-out: GPI IC50; agonism, guinea pig ileum; cited from earlier work
μ-opioid receptors, sequence (A0ACM8Q262 1-400): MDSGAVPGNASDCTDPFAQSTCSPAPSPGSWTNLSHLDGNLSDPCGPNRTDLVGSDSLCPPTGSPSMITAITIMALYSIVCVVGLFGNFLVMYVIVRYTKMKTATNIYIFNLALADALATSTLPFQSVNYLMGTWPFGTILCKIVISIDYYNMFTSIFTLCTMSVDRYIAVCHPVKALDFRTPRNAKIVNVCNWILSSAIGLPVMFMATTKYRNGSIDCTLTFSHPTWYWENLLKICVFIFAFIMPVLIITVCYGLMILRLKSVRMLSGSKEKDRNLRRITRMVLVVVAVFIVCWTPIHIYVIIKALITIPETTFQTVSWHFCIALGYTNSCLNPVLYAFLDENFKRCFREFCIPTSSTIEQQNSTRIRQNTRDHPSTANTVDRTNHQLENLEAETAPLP

[7] = target: T1, δ-opioid receptor; assay: Effect on deltorphin C stimulated GTPγS binding in NG108-15 cell membranes; format: biochemical; conditions: for GTPγS (pA2)δ: antagonism of deltorphin C stimulated GTPγS binding, NG108-15 cell membranes, NA: not active (>20.000nM)

## Cc1cc(O)cc(C)c1CC(N)C(=O)N1Cc2ccccc2CC1C(=O)NCCCCCCNC(=O)C1Cc2ccccc2CN1C(=O)C(N)Cc1c(C)cc(O)cc1C (stereo not drawn) [1,6-bis[H-Dmt-Tic-NH]hexane]
[1]
  pA2 δ: 10.62

## Cc1cc(O)cc(C)c1CC(N)C(=O)N1Cc2ccccc2CC1C(=O)NCCCCNC(=O)C1Cc2ccccc2CN1C(=O)C(N)Cc1c(C)cc(O)cc1C (stereo not drawn) [butylene-bis[Dmt-Tic-NH]]
[1]
  pA2 δ: 10.51
[2]
  pA2 μ: 6.99

## Cc1cc(O)cc(C)c1C[C@H](N)C(=O)N[C@H]1Cc2ccccc2CN(CC(=O)NCc2ccccc2)C1=O [compound 6, H-Dmt-Aba-Gly-NH-Bn]
[3]
  Ki: 11 ± 2.3 nM
[4]
  Selectivity Kiδ/Kiμ: 24
  Ki: 0.46 ± 0.07 nM
[5]
  IC50: 830 ± 70 nM
[6]
  IC50: 51 ± 5 nM

## Cc1cc(O)cc(C)c1C[C@H](N)C(=O)N[C@@H]1Cc2c([nH]c3ccccc23)CN(CC(=O)NCc2ccccc2)C1=O [compound 7, H-Dmt-D-Aia-Gly-NH-Bn]
[3]
  Ki: 160 ± 23 nM
[4]
  Selectivity Kiδ/Kiμ: 48
  Ki: 3.35 ± 0.28 nM
[5]
  IC50: 1500 ± 139 nM
[6]
  IC50: 14.9 ± 1.6 nM

## Cc1cc(O)cc(C)c1C[C@@H](C(=O)N[C@H]1Cc2c([nH]c3ccccc23)CN(CC(=O)O)C1=O)N(C)C [compound 8, Me2Dmt-Aia-Gly-OH]
[3]; ratio of binding Ki values
  Selectivity Kiμ/Kiδ: 132
[3]
  Ki: 6.64 ± 0.89 nM
[4]
  Ki: 874 ± 100 nM

## Cc1cc(O)cc(C)c1C[C@H](N)C(=O)N1Cc2ccccc2C[C@H]1C(=O)NCCNC(=O)[C@@H]1Cc2ccccc2CN1C(=O)[C@@H](N)Cc1c(C)cc(O)cc1C [compound 9, ethylene-bis(H-Dmt-Tic-NH)] (I: H-[Dmt]-[Tic] / II: H-[Dmt]-[Tic]; linker I:C-II:C via Ethylenediamine)
[7]
  Kb: 0.912 nM
  GTPγS (pA2)δ: 9.04

## Cc1cc(O)cc(C)c1C[C@H](N)C(=O)N[C@@H]1Cc2c([nH]c3ccccc23)CN(CC(=O)NCCNC(=O)CN2Cc3[nH]c4ccccc4c3C[C@@H](NC(=O)[C@@H](N)Cc3c(C)cc(O)cc3C)C2=O)C1=O [compound 11, ethylene-bis(H-Dmt-D-Aia-Gly-NH)]
[7]
  GTPγS (pA2)δ: unable to diminish the GTPγS binding

## Cc1cc(O)cc(C)c1C[C@H](N)C(=O)N1Cc2ccccc2C[C@H]1C(=O)NCCN(CCNC(=O)[C@@H]1Cc2ccccc2CN1C(=O)[C@@H](N)Cc1c(C)cc(O)cc1C)CCNC(=O)[C@@H]1Cc2ccccc2CN1C(=O)[C@@H](N)Cc1c(C)cc(O)cc1C [compound 15, tris-[H-Dmt-Tic-NH-ethylene]-N]
[7]
  Kb: 2.29 nM

## Cc1cc(O)cc(C)c1C[C@H](N)C(=O)N[C@H]1Cc2ccccc2CN(CC(=O)NCCN(CCNC(=O)CN2Cc3ccccc3C[C@H](NC(=O)[C@@H](N)Cc3c(C)cc(O)cc3C)C2=O)CCNC(=O)CN2Cc3ccccc3C[C@H](NC(=O)[C@@H](N)Cc3c(C)cc(O)cc3C)C2=O)C1=O [compound 16, tris-[H-Dmt-Aba-Gly-NH-ethylene]-N]
[7]
  Kb: 22.9 nM
